From patent publication US20080280937A1, “Ligand Conjugates of Vinca Alkaloids, Analogs, and Derivatives” (priority 2005, published 2008)
“Also recorded” adds a separate entry of the source. Where two headings read alike, the source gives them in different places. Marks after values point to notes of the source that are not given here.

Columns and labels:
KB tumors = assay type: in vivo, nu/nu mice; conditions: for % T/C / LCK (log of cell kill): animals not showing complete response
Procedure: Inhibition of Tumor Growth in Mice. The anti-tumor activity of the compounds described herein, when administered intravenously (i.v.) to tumor-bearing animals, was evaluated in nu/nu mice bearing subcutaneous KB tumors. Approximately 8 to 11 days post tumor inoculation in the subcutis of the right axilla with 1×10^6 KB cells (tumor volume range at t0=between 60 and 80 mm^3), mice (5/group) were injected i.v. three times a week (TIW), for a defined length of time (e.g., 2-3 weeks) with (a) a defined dose level on a per kilogram body weight basis of a drug delivery conjugate described herein, or (b) an equivalent dose volume of PBS (control). Tumor growth was measured using calipers at 2-day or 3-day intervals in each treatment group. Tumor volumes were calculated using the equation V=a×b^2/2, where “a” is the length of the tumor and “b” is the width expressed in millimeters.

[1] = Animal Weight Determination; conditions: for Weight Loss: nu/nu mice with KB tumors; for weight of Balb/c mice: 3 μmol/kg TIW for 3 weeks (FIG. 25B)
Procedure: Animal Weight Determination. The percentage weight change of the mice was determined in mice (5 mice/group) on the indicated days post-tumor inoculation (PTI) as shown in the graph for the samples described in the related tumor volume assay.

folate receptors (FRs) = molecular target: T1, folate receptors (FRs) (Homo sapiens, UniProt P15328); assay: Relative Affinity Assay (displacement of 3H-folic acid on FR-positive KB cells); assay type: binding; conditions: figure legends; folic acid = 1.0; 1 hour at 37° C
T1 construct: FR-positive KB cells were heavily seeded into 24-well cell culture plates; endogenous in cells; host or cells: KB cells
T1 sequence (P15328 25-234): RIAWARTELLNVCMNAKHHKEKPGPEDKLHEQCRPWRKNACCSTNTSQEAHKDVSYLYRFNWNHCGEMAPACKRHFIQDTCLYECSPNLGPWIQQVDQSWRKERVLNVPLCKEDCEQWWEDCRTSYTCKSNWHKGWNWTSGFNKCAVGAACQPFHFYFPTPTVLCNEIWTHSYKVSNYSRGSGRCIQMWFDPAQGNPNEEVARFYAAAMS
Procedure: Relative Affinity Assay. The affinity of the compounds described herein for folate receptors (FRs) relative to folate was determined according to a previously described method (Westerhof, G. R., J. H. Schornagel, et al. (1995) Mol. Pharm. 48: 459-471) with slight modification. Briefly, FR-positive KB cells were heavily seeded into 24-well cell culture plates and allowed to adhere to the plastic for 18 h. Spent incubation media was replaced in designated wells with folate-free RPMI (FFRPMI) supplemented with 100 nM ^3H-folic acid in the absence and presence of increasing concentrations of test article or folic acid. Cells were incubated for 60 min at 37° C. and then rinsed 3 times with PBS, pH 7.4, followed by the addition of 500 μL of 1% SDS in PBS, pH 7.4. Cell lysates were then collected and added to individual vials containing 5 mL of scintillation cocktail, and then counted for radioactivity. Negative control tubes contained only the ^3H-folic acid in FFRPMI (no competitor). Positive control tubes contained a final concentration of 1 mM folic acid, and CPMs measured in these samples (representing non-specific binding of label) were subtracted from all samples.

CC[C@]1(O)C[C@@H]2CN(CCc3c([nH]c4ccccc34)[C@@](C(=O)OC)(c3cc4c(cc3OC)N(C)[C@H]3[C@@](O)(C(=O)NN)[C@H](O)[C@]5(CC)C=CCN6CC[C@]43[C@@H]65)C2)C1 [DAVLBH, desacetylvinblastine hydrazide]
CR (animals of 5 showing a complete response) (KB tumors; 0.5 μmol/kg TIW 2 wk): 0/5 | % T/C (KB tumors; 0.5 μmol/kg TIW 2 wk): 146% | LCK (log of cell kill) (KB tumors; 0.5 μmol/kg TIW 2 wk): 0.6 | CR (animals of 5 showing a complete response) (KB tumors; 0.75 μmol/kg TIW 2 wk): 0/5 | % T/C (KB tumors; 0.75 μmol/kg TIW 2 wk): 265% | LCK (log of cell kill) (KB tumors; 0.75 μmol/kg TIW 2 wk): 1.8 | CR (animals of 5 showing a complete response) (KB tumors; 1 μmol/kg TIW 2 wk): 0/5 | % T/C (KB tumors; 1 μmol/kg TIW 2 wk): 246% | LCK (log of cell kill) (KB tumors; 1 μmol/kg TIW 2 wk): 1.8 | CR (animals of 5 showing a complete response) (KB tumors; 2 μmol/kg TIW 2 wk): 0/5^(d) | deaths (KB tumors; 2 μmol/kg TIW 2 wk, 5 animals): ^(d)5 deaths. | Weight Loss ([1]; 0.5 μmol/kg TIW 2 wk): 0% | Weight Loss ([1]; 0.75 μmol/kg TIW 2 wk): 0% | Weight Loss ([1]; 1 μmol/kg TIW 2 wk): >10% | Weight Loss ([1]; 2 μmol/kg TIW 2 wk): >20%

CC[C@]1(O)C[C@H]2CN(CCc3c([nH]c4ccccc34)[C@@](C(=O)OC)(c3cc4c(cc3OC)N(C)[C@H]3[C@@](O)(C(=O)NCCOC(=O)OCCSSC[C@H](NC(=O)[C@H](CC(=O)O)NC(=O)[C@H](CCCNC(=N)N)NC(=O)[C@H](CC(=O)O)NC(=O)CC[C@H](NC(=O)c5ccc(NCc6cnc7nc(N)[nH]c(=O)c7n6)cc5)C(=O)O)C(=O)O)[C@H](O)[C@]5(CC)C=CCN6CC[C@]43[C@@H]65)C2)C1 [Example 22]
relative binding affinity versus folic acid at folic acid receptors (folate receptors (FRs)): 0.26 | weight of Balb/c mice [1]: little effect on the weight of the mice; also recorded: absence of an effect

Nc1nc2ncc(CNc3ccc(C(=O)N[C@@H](CCC(=O)O)C(=O)O)cc3)nc2c(=O)[nH]1 [folic acid, reference compound]
relative binding affinity versus folic acid at folic acid receptors (folate receptors (FRs)): 1.0

Nc1nc2ncc(CNc3ccc(C(=O)N[C@H](CCC(=O)NC[C@H](N)C(=O)N[C@@H](CC(=O)O)C(=O)N[C@@H](CS)C(=O)O)C(=O)O)cc3)nc2c(=O)[nH]1 [EC20]
competition with Example 7 at folate receptors (KB tumors; 40 μmol/kg EC20 (rhenium complex) with 2 μmol/kg Example 7): acts as a competitor of Example 7 at folate receptors

CC[C@]1(O)C[C@H]2CN(CCc3c([nH]c4ccccc34)[C@@](C(=O)OC)(c3cc4c(cc3OC)N(C)[C@H]3[C@@](O)(C(=O)NNC(=O)OCCSSC[C@H](NC(=O)[C@H](CC(=O)O)NC(=O)[C@H](CC(=O)O)NC(=O)[C@H](CCCNC(=N)N)NC(=O)[C@H](CC(=O)O)NC(=O)[C@H](CCC(=O)O)NC(=O)c5ccc(NCc6cnc7nc(N)[nH]c(=O)c7n6)cc5)C(=O)O)[C@H](O)[C@]5(CC)C=CCN6CC[C@]43[C@@H]65)C2)C1 [Example 11]
weight of nu/nu mice ([1]; 2 μmol/kg TIW for 3 weeks (FIG. 26B)): little effect on the weight of the mice; also recorded: absence of an effect

CC[C@]1(O)C[C@H]2CN(CCc3c([nH]c4ccccc34)[C@@](C(=O)OC)(c3cc4c(cc3OC)N(C)[C@H]3[C@@](O)(C(=O)NNC(=O)OCCSSC[C@H](NC(=O)[C@H](CC(=O)O)NC(=O)[C@H](CC(=O)O)NC(=O)[C@H](CC(=O)O)NC(=O)[C@H](CC(=O)O)NC(=O)CC[C@H](NC(=O)c5ccc(NCc6cnc7nc(N)[nH]c(=O)c7n6)cc5)C(=O)O)C(=O)O)[C@H](O)[C@]5(CC)C=CCN6CC[C@]43[C@@H]65)C2)C1 [Example 21]
relative binding affinity versus folic acid at folic acid receptors (folate receptors (FRs)): 0.16 | weight of Balb/c mice [1]: little effect on the weight of the mice; also recorded: absence of an effect
